Tested on: skin isolated from a hairless mouse
Test: Skin permeability test (patch on isolated hairless mouse skin, permeation cell, PBS(-) receptor, HPLC)
Format: in vitro ADME
Conditions: statement in words, Tables 3 and 4
Procedure: To examine transdermal absorbability of the drug, the obtained patch preparation was subjected to a skin permeability test.
A patch preparation was cut into a circle having a diameter of 6 mmφ, adhered to the stratum corneum side of a skin isolated from a hairless mouse, mounted on a cell for skin permeation experiment (effective area 9 mmφ) such that the dermic layer side was a receptor phase, and a skin permeation experiment was conducted. As a receptor solution, a deaerated PBS(−) solution (phosphate buffered saline) was used.

## CCOC(=O)C1=C(COCCN)NC(C)=C(C(=O)OC)C1c1ccccc1Cl (stereo not shown) [amlodipine besilate]
  skin permeability of the drug: low skin permeability
